Format in all cases: functional, cell-based
One experiment relates to HeLa. Briefly: Cytotoxicity against human HeLa cells after 48 hrs by MTT assay.
For a further experiment, the system named is HepG2. In words: Cytotoxicity against human HepG2 cells after 48 hrs by MTT assay. The conditions noted are these: HepG2, 48 h.
Another experiment concerns A549. Briefly: Cytotoxicity against human A549 cells after 48 hrs by MTT assay. The following applies: A549, 48 h.
The test system of the next experiment is MDA-MB-231. In words: Cytotoxicity against human MDA-MB-231 cells after 48 hrs by MTT assay. The conditions noted are these: MDA-MB-231, 48 h.

In the case of `COC(=O)[C@@H]1c2c(oc3cc(C)cc(O)c3c2=O)OC=C[C@@H]1O` [CONIOXEPINOL A], the IC50 with HeLa is 104 µM; in the experiment with HepG2 it was > 120 µM; in the experiment on A549, > 120 µM; with MDA-MB-231, > 120 µM.

In the case of `COC(=O)[C@@H]1c2c(oc3cc(CO)cc(O)c3c2=O)OC=C[C@@H]1O` [CONIOXEPINOL B], the IC50 is 36.2 µM with HeLa, > 120 µM in the experiment on HepG2, > 120 µM in the experiment with A549 and > 120 µM in the experiment with MDA-MB-231.

Regarding `COC(=O)[C@]12Oc3cc(C)cc(O)c3C(=O)C1=C(O)OC=C[C@H]2O` [CONIOXEPINOL D], the IC50 in the experiment on HeLa was > 120 µM; in the experiment with HepG2, > 120 µM; with A549, 40.9 µM; in the experiment on MDA-MB-231 it was 41.4 µM.

For `COC(=O)[C@@]1(O)c2c(oc3cc(C)cc(O)c3c2=O)O[C@@H]1CCO` [CONIOFUROL A], the IC50 in the experiment with HeLa, in the experiment with HepG2, in the experiment on A549 and with MDA-MB-231 was > 120 µM each time.

`O=c1[nH]cc(F)c(=O)[nH]1` [FLUOROURACIL] returned an IC50 with HeLa of 10 µM.

As to `COC(=O)[C@@]1(O)c2c(oc3cc(C)cc(O)c3c2=O)OC=C[C@@H]1O` [CONIOXEPINOL C], the IC50 in the experiment on HeLa was > 120 µM; with HepG2, > 120 µM; in the experiment with A549, 83.6 µM; in the experiment with MDA-MB-231, 112 µM.

The values above are taken from ChEMBL document CHEMBL1157742, “Oxepinochromenones, furochromenone, and their putative precursors from the endolichenic fungus Coniochaeta sp” (J Nat Prod, 2010).
